According to PMC11375702, “Early Preclinical Studies of Ergosterol Peroxide and Biological Evaluation of Its Derivatives” (ACS Omega, 2024):
Converted amounts (≈) assume the structure as drawn. Like-named read-outs stand apart in the source and are kept apart here.

How the values were obtained:
MDA-MB-231 = assay: CellTiter-Glo 72 h cytotoxicity assay, MDA-MB-231; format: cell-based; conditions: Homo sapiens, CTG assay, read-out: MDA-MB231 (EC50)
Procedure: (§1) The following stable human cell lines were utilized for this study: SUM149 and MDA-MB-231 (breast cancer models) and BJ (human normal fibroblast, foreskin). Cells were purchased from BioIVT or the American Type Culture Collection (ATCC). Cells were cultured in F-12-Nutrient Mixture (SUM149), DMEM (MDA-MB-231), or EMEM (BJ) medium supplemented with 10% fetal bovine serum (Sigma-Aldrich, St. Louis, MO) and 2 mmol of L-glutamine, at 37 °C in a humidified 5% CO2 atmosphere (no antibiotics) as indicated by the manufacturer. Cell cultures were grown to 80–90% confluence before use, except where otherwise specified. Our cell lines are authenticated every 3 months using the CellCheck service (Idexx BioResearch, Westbrook, ME). Cells were tested for mycoplasma prior to use (MycoAlert detection Kit Lonza LT07–318) and discarded if they tested positive. A cell proliferation assay was performed using the CellTiter-Glo (Promega Corp., Madison, WI) luminescent cell viability assay kit. Cells were detached with trypsin, counted, and seeded in white polystyrene flat-bottom sterile 96-well tissue culture-treated plates (catalog no. 3917, Corning, Glendale, Arizona) and incubated overnight at 37 °C. MDA-MB231, SUM149, and BJ cells were seeded into 96-well plates at concentrations experimentally determined (0.4 × 10^4, 0.25 × 10^4, and 0.3 × 10^4 cells per well, respectively) to ensure logarithmic growth during the duration of the experiment and to prevent adverse effects on cell growth by DMSO exposure. The plates were incubated for 12 h before treatment. Stock solutions of test compounds (10 mM in DMSO) in nine 3-fold serial dilutions were dispensed. The final concentration of DMSO was 0.3% (v/v) in each well. The positive control used was staurosporine (10 μM) as the kill-all control, and the negative control used is DMSO as we have published. Staurosporine is a potent alkaloid inducer of various cell death modalities but primarily apoptosis, making it a reliable positive control for viability assays. The plates were incubated for 72 h and then quenched with CTG at 50 μL per well at RT. Plates were then incubated at RT for 20 min and centrifuged at 1000 rpm for 1 min. Luminescence was read on a CLARIOstar Plus plate reader (BMG LabTech, Ortenberg, Germany).
(§2) Three or four technical replicates were conducted for each experimental condition, and a minimum of three independent experiments were conducted for each assay. In vitro ADME values were expressed as mean ± standard deviation (SD) of at least three independent experiments. One-way analysis of variance (ANOVA) was adopted for comparisons among groups using the GraphPad Prism 10.2.3 (GraphPad Software, San Diego, CA). A difference of P < 0.05 was considered as statistically significant. Data are expressed as mean ± SEM. For CTG, the mean luminescence of each experimental treatment group was normalized as a percentage of the mean intensity of untreated controls (DMSO as vehicle). EC50 values were calculated from dose–response curve fitting via nonlinear regression using GraphPad Prism 10.2.3 (GraphPad Software, San Diego, CA). A therapeutic index (TI) between normal and tumor cell lines can be determined (EC50 non-neoplastic cell line BJ)/(EC50 cancer cell line). In vivo studies were analyzed using mixed-effects regression models to compare the changes in tumor volume over time by treatment group. Tumor volume reduction was compared using ANOVA with repeated measures, and all data was considered significant when P < 0.05.

SUM149 = assay: CellTiter-Glo 72 h cytotoxicity assay, SUM149; format: cell-based; conditions: Homo sapiens; for EC50: SUM149, CTG assay, 72 h; for IC50: calculated from SUM149 EC50
Excerpt: (§3) First, topological polar surface area (tPSA), a widely used molecular descriptor that provides insight into compound absorption and membrane penetration, was theoretically calculated for these compounds along with the estimated c log P (partition coefficient) or log P to further assess their global therapeutic potential.[18],[19] Lipophilicity, a measurable and predictable physical property, can provide practical guidance in designing compounds with improved molecular properties.[20] The tPSA sums the contribution of the surface area of polar atoms, enabling us to determine whether the compounds are more likely to be cell membrane permeable. The aqueous solubility was measured by ultraviolet/visible (UV/vis) spectroscopy.[21] […] EP shares an improved cLogP, but still relatively high from a desirable drug candidate (2.5–3.5). […] Compound 4 has a higher c log P, while compounds 5–10 have lower c log P values. To determine LiPE (lipophilicity efficiency), the following formula was used: LiPE = pIC50 – log P, according to established methods.[22],[23] […] The obtained EC50 values for the newly generated EP derivatives were within a similar range for other derivatives previously described against TNBC models.[17]
as §1
Three or four technical replicates were conducted for each experimental condition, and a minimum of three independent experiments were conducted for each assay. In vitro ADME values were expressed as mean ± standard deviation (SD) of at least three independent experiments. One-way analysis of variance (ANOVA) was adopted for comparisons among groups using the GraphPad Prism 10.2.3 (GraphPad Software, San Diego, CA). A difference of P < 0.05 was considered as statistically significant. […]

BJ = assay: CellTiter-Glo 72 h cytotoxicity assay, BJ normal fibroblasts; format: cell-based; conditions: Homo sapiens, CTG assay, noncancerous fibroblasts
Procedure: as §1, §2

[1] = Aqueous solubility by UV/vis absorbance; format: physicochemical; conditions: kinetic from dmso stock
Excerpt: as §3
Briefly, clear 96-well PS plates with lids (catalog no. 3903, Corning, Glendale, Arizona) were used for spectrophotometric determination of absorbance with a CLARIOstar Plus plate reader (BMG LabTech, Ortenberg, Germany) to determine at which concentration the compounds are precipitating out of solution. Decrease in transmittance of 2% or higher was considered significant. Compound solutions of 10 mM in DMSO were prepared followed by a serial dilution series, which were vortexed to ensure the solutions were homogeneous. The 96-well plate was then prepared with distilled H2O and allowed to equilibrate for 1.5 h. Then, the plate was placed in a CLARIOstar Plus plate reader or Cytation C10 (Biotek, Agilent) and set to detect absorbance at 220–700 nm. Each well was read individually. Three replicate assays were conducted for each experimental condition, and a minimum of three independent experiments were conducted.

[2] = Simulated gastric fluid (SGF) stability; format: in vitro ADME; conditions: simulated gi fluid; simulated gastric fluid; read-out: SGF stability t1/2 (converted)
Procedure: The simulated gastric fluid (SGF) assay is an important element in determining the overall drug-like potential of compounds.[29],[30] Anecdotal studies of oral consumption of extracts by humans indicate positive outcomes of digestion of mixtures of EP and its related natural products found in G. lucidum.[2] […] Chlorambucil was used as positive control as previously described.[32],[33] […] Caco-2 permeability studies were conducted to validate and to provide information on EP’s ability to cross the intestinal barrier and its potential for interactions with drug transporters.[36]−[39] The rate of transport in both directions (A-B and B-A) across the cell monolayer enables an efflux ratio (B-A/A-B) to be determined, enabling us to determine if a compound undergoes active efflux (efflux ratio ≥2).

[3] = Plasma stability assay (human)
[4] = Plasma stability assay (mouse); conditions: male, Balb/c, mouse, plasma
Procedure: (§5) Briefly, pooled blood from 3 animals for experiment (male Balb/c 6–8w from the division of laboratory animal medicine in-house breeding colony) was collected, and the heparinized plasma was prepared. Plasma and test compounds were added to individual wells of a 96-well microtiter plate. Compounds were incubated at 37 °C for the provided time points. All tests were performed in triplicates. The test compound was incubated with plasma at six different time points. The reaction was terminated by methanol containing an internal standard. After centrifugation, the concentration of the test compound in the supernatant was quantified by LC-MS/MS.
(§6) Plasma stability assay: Briefly, pooled blood from 3 animals for experiment (male Balb/c 6-8w
(§7) from the division of laboratory animal medicine in-house breeding colony) was collected, and
(§8) the heparinized plasma was prepared. Plasma and test compounds were added to the individual
(§9) wells of a 96-well microtiter plate. Compounds were incubated at 37°C for the provided time
(§10) points. All tests were performed in triplicates. Then, the test compound was incubated with
(§11) plasma at six different time points. The reaction was terminated by the addition of methanol
(§12) containing an internal standard. After centrifugation, the concentration of the test compound in
(§13) the supernatant was quantified by LC-MS/MS. The percentage of test compound remaining at
(§14) compounds are known to be metabolized by plasma esterases,1 and were also incubated with
each batch of test compound.
(§15) A standard protocol and MS method was used for the plasma stability experiment. The extraction
(§16) procedure for plasma/tissue samples and the spiked plasma/tissue calibration standards were
(§17) identical: A 25 µL of study sample or spiked plasma/tissue calibration standard was added to
(§18) individual pre-labeled micro-centrifuge tubes followed by 100 µL of internal standard prepared
(§19) in Acetonitrile (Albendazole, 500 ng/mL) was added except for blank, where 100 µL of
(§20) Acetonitrile was added. Samples were vortexed for 5 minutes. Samples were centrifuged for 5
(§21) minutes at a speed of 4000 rpm at 4°C. Following centrifugation, 100 µL of clear supernatant
(§22) was transferred in 96 well plates and analyzed using LC-MS/MS mode. The LC system
(§23) comprises of a binary pump that can mix two mobile phases: A = Water+0.1% formic acid; B =
(§24) acetonitrile +0.1%formic acid. The system was operated in gradient mode using a 6 minute
(§25) min, 10-90% A to B in 5.5-6 min, and then hold at this gradient, using a Phenomenex Luna, 150
(§26) X 4.6 mm, 5 µm column. Source Parameter: positive, Ion Spray Voltage 5500, Temperature
550C, interface heater on.

[5] = Plasma protein binding, rapid equilibrium dialysis (human); format: in vitro ADME
Procedure: (§4) This assay determines the plasma protein binding of a drug or compound and free drug concentration in plasma using rapid equilibrium dialysis. We use the Single-Use RED (rapid equilibrium dialysis, Thermo Scientific) devices to allow the aqueous component of plasma containing the free drug/compound through a dialysis membrane (MWCO ∼ 8000). Sample quantification is determined using a Waters ACQUITY-SOQ UPLC-MS-ELDS-UV system.

in vitro [6] = conditions: male, Balb/c, mouse, plasma
Procedure: as §5, §6, §7, §8, §9, §10, §11, §12, §13, §14
each batch of test compound.
as §15, §16, §17, §18, §19, §20, §21, §22, §23, §24, §25, §26
550C, interface heater on.

[7] = Metabolic stability in human liver microsomes; format: in vitro ADME
Procedure: (§27) Human and/or mouse microsomal degradation was determined using multiple time points to monitor the rate of disappearance of the parent compound during incubation following the method described by Di et al.[51],[52] […] The metabolic stability was evaluated via the half-life from the least-squares fit of the multiple time points based on first-order kinetics. Waters ACQUITY-TOQ UPLC-MS-MS-UV system was used to analyze the samples as established in various MS core facilities.[51],[52]

[8] = Metabolic stability in mouse liver microsomes; format: in vitro ADME
Procedure: as §27

in vitro [9] = conditions: human, plasma
[10] = Plasma protein binding, rapid equilibrium dialysis (mouse); format: in vitro ADME
Procedure: as §4

[11] = Caco-2 permeability assay; format: in vitro ADME; conditions: human
Procedure: It was performed in the 96-well Transwell system with a modified method.[36] Caco-2 cells were maintained at 37 °C in a humidified incubator with an atmosphere of 5% CO2. The cells were cultured in MEM containing 20% FBS in […], 100 units/mL penicillin, and 100 μg/mL of streptomycin. The Caco-2 cells were seeded onto inserts of a 96-well plate at a density of 0.5 × 10^5 cells/insert and cultured in the MEM containing 20% FBS for 7 days. Each cultured monolayer on the 96-well plate was washed twice with HBSS/HEPES (10 mM, pH 7.4). The permeability assay was initiated by the addition of each compound solution (10 μmol/L) into inserts (apical side, A) or receivers (basolateral side, B). The Caco-2 cell monolayers were incubated for 2 h at 37 °C. Fractions were collected from receivers (if apical to basal permeability) or inserts (if basal to apical permeability), and concentrations were assessed by UPLC/MS (Waters; Milford, MA). All compounds were tested in triplicates. The A → B (or B → A) apparent permeability coefficients ([…]) of each compound were calculated using the equation Pappa = dQ/dt × 1/AC0. The flux of a drug across the monolayer is dQ/dt (μmol/s). The initial drug concentration on the apical side is C0 (μmol/L). The surface area of the monolayer is A (cm^2).

SMILES | EC50 (MDA-MB-231) | EC50 (SUM149) | IC50 (SUM149) | EC50 (BJ) | solubility at […] ([1]; water) | other results
CC(C)[C@@H](C)/C=C/[C@@H](C)[C@H]1CC[C@@H]2[C@]1(C)CC[C@H]1[C@@]23OO[C@@]2(C[C@@H](O)CC[C@]12C)C(O)C3O (stereo partly shown) [Compound 6] | 25.4 µM | 14.5 µM | 14.8 µM | 135 µM | 23.1 µg/mL (≈ 50 µM) | 
CC(C)[C@@H](C)/C=C/[C@@H](C)[C@H]1CC[C@@H]2[C@]1(C)CC[C@H]1[C@]23C=C[C@]2(C[C@@H](OS(=O)(=O)O)CC[C@]12C)OO3 [Compound 9] | 3.47 µM | 2.7 µM | 2.75 µM | 50 µM | 15.5 µg/mL (≈ 30.5 µM) | 
CC(C)[C@@H](C)C(O)C(O)[C@@H](C)[C@H]1CC[C@@H]2[C@]1(C)CC[C@H]1[C@@]23OO[C@@]2(C[C@@H](O)CC[C@]12C)C(O)C3O (stereo partly shown) [Compound 8] | 29.7 µM | 6.42 µM | 6.46 µM | 172 µM | 24.8 µg/mL (≈ 50 µM) | 
CC(C)[C@@H](C)C1OC1[C@@H](C)[C@H]1CC[C@@H]2[C@]1(C)CC[C@H]1[C@]23C=C[C@]2(C[C@@H](OS(=O)(=O)O)CC[C@]12C)OO3 (stereo partly shown) [Compound 5a] | 7.37 µM | 2.24 µM | 2.29 µM | 48 µM | 26.2 µg/mL (≈ 49.9 µM) | 
O=C(O)CCCc1ccc(N(CCCl)CCCl)cc1 [chlorambucil, reference compound] |  |  |  |  |  | half-life [2]: 1110 min
CC1CC(OC(=O)C(O)c2ccccc2)CC(C)(C)N1C (stereo not shown) [eucatropine, reference compound] |  |  |  |  |  | half-life [3]: 24.6 min; half-life [4]: 112 min
CC(C)[C@@H](C)C1OC1[C@@H](C)[C@H]1CC[C@@H]2[C@]1(C)CC[C@H]1[C@]23C=C[C@]2(C[C@@H](O)CC[C@]12C)OO3 (stereo partly shown) [Compound 5] | 15.7 µM | 2.74 µM | 2.75 µM | 70.4 µM | 5.56 µg/mL (≈ 12.5 µM) | 
CC(C)[C@@H](C)/C=C/[C@@H](C)[C@H]1CC[C@@H]2[C@]1(C)CC[C@H]1[C@]23C=C[C@]2(C[C@@H](OC(=O)NS(=O)(=O)c4ccccc4)CC[C@]12C)OO3 [Compound 7] | 12 µM | 5.6 µM | 5.62 µM | 47.1 µM | 26.8 µg/mL (≈ 43.7 µM) | fraction unbound [5]: 0.0062; half-life (in vitro [6]): > 2880 min; metabolic stability (human) clint [7]: 24.91 mL/Min/K g; half-life ([7]; both sexes, pooled liver microsomes, read-out: metabolic stability (human) t1/2 (converted)): 49.8 min; metabolic stability (mouse) clint [8]: 63.82 mL/Min/K g; half-life ([8]; female, CD-1, pooled liver microsomes, read-out: metabolic stability (mouse) t1/2 (converted)): 54 min; half-life (in vitro [9]): > 2880 min; fraction unbound [10]: 0.0017
C=CC(=O)O[C@H]1CC[C@]2(C)[C@H]3CC[C@]4(C)[C@@H]([C@H](C)/C=C/[C@H](C)C(C)C)CC[C@H]4[C@@]34C=C[C@]2(C1)OO4 [Compound 4] | 47.6 µM | 31 µM | 31.6 µM | 92.5 µM | 24.1 µg/mL (≈ 50 µM) | 
NC(=O)N1c2ccccc2C=Cc2ccccc21 [carbamazepine, reference compound] |  |  |  |  |  | efflux ratio at 2 h, 10 µmol/L ([11]; Caco-2, pH 7.4, Caco-2, read-out: efflux ratio (B2A/A2B)): 0.74; Papp A→B at 2 h, 10 µmol/L ([11]; Caco-2, pH 7.4, apical to basolateral): 37.6 ×10⁻⁶ cm/s; Papp B→A at 2 h, 10 µmol/L ([11]; Caco-2, pH 7.4, basolateral to apical): 27.7 ×10⁻⁶ cm/s
CC(C)[C@@H](C)/C=C/[C@@H](C)[C@H]1CC[C@H]2C3=CC=C4C[C@@H](O)CC[C@]4(C)[C@H]3CC[C@]12C [Compound 1, Ergosterol] | > 120 µM | 61 µM | 61.7 µM |  |  | solubility at […] ([1]; distilled water, distilled H2O, UV/vis, read-out: solubility limit): 0.59 µg/mL (≈ 1.49 µM)
CC(C)[C@@H](C)/C=C/[C@@H](C)[C@H]1CC[C@@H]2[C@]1(C)CC[C@H]1[C@@]23OO[C@@]2(C[C@@H](OS(=O)(=O)O)CC[C@]12C)C(OS(=O)(=O)O)C3OS(=O)(=O)O (stereo partly shown) [Compound 10] | 10.7 µM | 3.11 µM | 3.09 µM | 77.9 µM | 17.8 µg/mL (≈ 25.4 µM) | 
